Data: article PMC9481563, “Structural insights into the pSer/pThr dependent regulation of the SHP2 tyrosine phosphatase in insulin and CD28 signaling” (Nature Communications, 2022)

Molecular target: T1, PTP1B catalytic domain, C215S (Homo sapiens, UniProt P18031, C215S)
T1 sequence (P18031 1-229 C215S): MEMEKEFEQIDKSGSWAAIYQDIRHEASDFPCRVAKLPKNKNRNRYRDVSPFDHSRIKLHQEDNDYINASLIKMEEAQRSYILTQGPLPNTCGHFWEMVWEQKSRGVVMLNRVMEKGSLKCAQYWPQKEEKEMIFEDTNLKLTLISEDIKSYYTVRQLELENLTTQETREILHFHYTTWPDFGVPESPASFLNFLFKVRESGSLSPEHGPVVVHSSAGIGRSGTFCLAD
Assay: biochemical
Type: binding
Conditions: competitive FP titration vs CF-ppIRS1 100 nM, protein fixed, unlabelled peptide varied; n = 3 technical replicates
Description: The two SH2 domains of PI3KR1 (UniProt P27986; nSH2: 321−433 cSH2: 614–724) were cloned from HEK293T cDNA pool, and subsequently ligated into a modified pET vector encoding maltose binding protein (MBP) tag on the N-terminal and a hexa-His tag on the C-terminal end of the construct. Similarly, the catalytic, tyrosine phosphatase domains of PTPRε (P23469 first domain: 107–399) and PTP1B (P18031; 1–229) were cloned from a HEK293T cDNA pool, and inserted into a pBH4 vector encoding an N-terminal His6 tag (for the final binding experiments, an MBP-tagged version of PTPRε was employed). […] Wild-type C-terminal FLAG-tagged human IRS1 was cloned between HindIII-NotI sites of pcDNA3.1(+) vector (#V79020 Invitrogen, Waltham MA USA). Ser/Ala mutant IRS1 was generated by replacing the region of S616/S636/S666/S736 positions with a cassette carrying S616A/S636A/S666A/S736A mutations. All constructs were validated by complete Sanger sequencing before protein expression and purification. The oligonucleotide sequences used are shown on Supplementary table 4.
Fluorescence polarization was always measured in triplicates, on black Corning low volume round bottom 384-well plates (with 10 ul volumes), using a BioTek Cytatation 5 reader, with the green fluorescent protein (GFP) cube filter set (ex: 485/20, em: 528/20, gain: 50, height: 7.5). Fluorescence polarization data was evaluated on Origin 2018. The dissociation constants (Kd) were determined by using the appropriate quadratic and cubic equations inserted as a user-defined function and applying nonlinear fit until convergence. The fitting formulae are shown at Supplementary note 1. Kd ratio distributions for Fig. 6 were calculated using a Monte-Carlo approach (Supplementary note 2).
Supplementary note 1. Curve fitting of fluorescence polarization (FP) measurements.
To evaluate polarization values from direct and competitive titrations, we used the following fitting formulae in Origin 2018, as detailed below.
Direct titration curves were fitted according to the following formula: […]
Where Imin is the minimal anisotropy, Imax is the (asymptotically estimated) maximal intensity. K0 is the starting concentration of the protein, while T0 is the (fixed) concentration of the labelled peptide and Kd is the dissociation constant.
Competitive titration curves were fitted with a different formula (In addition to those defined above, constants KdT KdB B0 T0 and D0 here refer to the Kd derived from the direct titration, the unknown Kd of the analyte, the labelled peptide concentration, the competitor peptide concentration as well as the protein concentration, respectively).
The ± sign refers to two different scenarios, depending on the sign of discriminant (KdT > KdB or […]). For unknown analytes, the choice of sign is not arbitrary, as the fitting will not converge unless the appropriate formula is chosen: […]
Where A, B and C correspond to the following expressions: […]

Row | SMILES | Kd [nM]
1 | CSCC[C@H](NC(=O)[C@@H]1CCCN1C(=O)[C@H](CCSC)NC(=O)[C@H](Cc1ccc(OP(=O)(O)O)cc1)NC(=O)[C@H](CC(=O)O)NC(=O)CNC(=O)[C@H](CO)NC(=O)CNC(=O)[C@H](CCCCN)NC(=O)[C@H](CCCNC(=N)N)NC(=O)CN)C(=O)N[C@@H](CO)C(=O)N1CCC[C@H]1C(=O)N[C@@H](CCCCN)C(=O)N[C@@H](CO)C(=O)O [p0IRS1] | 1140 ± 85.1
2 | CSCC[C@H](NC(=O)[C@@H]1CCCN1C(=O)[C@H](CCSC)NC(=O)[C@H](Cc1ccc(OP(=O)(O)O)cc1)NC(=O)[C@H](CC(=O)O)NC(=O)CNC(=O)[C@H](CO)NC(=O)CNC(=O)[C@H](CCCCN)NC(=O)[C@H](CCCNC(=N)N)NC(=O)CN)C(=O)N[C@@H](COP(=O)(O)O)C(=O)N1CCC[C@H]1C(=O)N[C@@H](CCCCN)C(=O)N[C@@H](CO)C(=O)O [ppIRS1] | 61.3 ± 10.2
